Experimental data from US10443043B2, “Methods for making induced pluripotent stem cells” (NEW YORK UNIVERSITY, priority 2015, dated 2019).

What was measured:
Assay type in all cases: cell-based, mouse
[1] = test system: SSEA1+ day 4 intermediates of reprogrammable MEFs; test: Microarray and gene ontology analysis of day 4 reprogramming intermediates; settings: individual chemical
Excerpt: For the study of reprogramming intermediates, cultures of reprogrammable MEFs at day 4 in presence of OKSM expression were harvested and stained with biotinylated anti-SSEA1 antibody (MC-480, eBioscience), followed by APC-conjugated Streptavidin and anti-APC microbeads (Milteny Biotec). SSEA1^+ cells were enriched to ˜90% purity using MACS separation columns (Milteny Biotec) according to the manufacturer's instructions. Total RNA extracted with the miRNeasy mini kit (QIAGEN) with a RIN value >8 was subjected to transcriptional analyses with Affymetrix mouse genome 430 2.0 mRNA expression microarrays followed by bioinformatic analyses.
Pair-wise differential expression of MEFs, ESCs, GMPs and HEPs was assessed using a t-test and the resulting p-values were adjusted for multiple hypothesis testing as by the Benjamini & Hochberg procedure. […] FDR was assessed using the following methodology. […] Briefly, differential expression was assessed for every Affymetrix transcript probe between samples. As a preprocessing step, quantiles were normalized across samples and replicates, and subsequently fold changes were computed for each probe across the two replicates of each sample. The false discovery rate was computed by comparing the distribution of fold changes against the distribution of fold changes between replicates of the same sample.

GMPs [2] = test: Bulk reprogramming of granulocyte-macrophage progenitors, dox-independent colonies
Protocol: (§1) MEFs (Stadtfeld et al., 2008) and hepatoblasts (Gailhouste, 2012) were isolated from E14.5 embryos and GMPs, CMPs, MEP and LSK cells from either fetal liver or adult bone marrow (Akashi et al., 2000). All cell types used for reprogramming experiments were heterozygous for the inducible OKSM cassette, Rosa26-rtTA and the Oct4-GFP reporter. MEFs were expanded in reduced-oxygen conditions (4%) and used at passages 1 or 2. For reprogramming, cells were seeded in ESC media (DMEM with 15% FBS, L-glutamin, penicillin-streptomycin, nonessential amino acids, β-mercaptoethanol and 1000 U/ml LIF) at the desired density on a layer of irradiated feeder cells in presence of 1 mg/ml doxycycline. If applicable, L-Ascorbic acid (50 ng/μl), CHIR99021 (3 μM), TGFβ RI Kinase Inhibitor II (250 nM) and PD032590 (0.75 μM) were added. […] To score factor-independent colonies, dox (and other compounds) were removed by washing cultures twice with PBS and then maintaining them in ESC media for at least three days before colonies were counted by fluorescence microscopy or after alkaline phosphatase staining (Vector Laboratories). For quantification of Oct4-GFP expression, cultures were harvested by trypsin digestion, stained with DAPI or 7-AAD to exclude dead cells, acquired on a LSRII cytometer (BD Biosciences) and analyzed with FlowJo software (Tree Star Inc.). […]

reprogrammable MEFs = test: Reprogramming of reprogrammable MEFs seeded in bulk, dox-independent colonies; settings: six days dox plus compound, then three days unsupplemented ESC media
Protocol: MEFs (Stadtfeld et al., 2008) and hepatoblasts (Gailhouste, 2012) were isolated from E14.5 embryos and GMPs, CMPs, MEP and LSK cells from either fetal liver or adult bone marrow (Akashi et al., 2000). All cell types used for reprogramming experiments were heterozygous for the inducible OKSM cassette, Rosa26-rtTA and the Oct4-GFP reporter. MEFs were expanded in reduced-oxygen conditions (4%) and used at passages 1 or 2. For reprogramming, cells were seeded in ESC media (DMEM with 15% FBS, L-glutamin, penicillin-streptomycin, nonessential amino acids, β-mercaptoethanol and 1000 U/ml LIF) at the desired density on a layer of irradiated feeder cells in presence of 1 mg/ml doxycycline. If applicable, L-Ascorbic acid (50 ng/μl), CHIR99021 (3 μM), TGFβ RI Kinase Inhibitor II (250 nM) and PD032590 (0.75 μM) were added. For GMPs and other blood progenitors, cultures were supplemented with Flt3-ligand (10 ng/ml) and SCF (20 ng/ml) for the first three days of reprogramming. Media was replenished every two days. To facilitate detection of Oct4-GFP expression in nascent colonies by fluorescent microscopy, reprogramming experiments were conducted in ESC media prepared with FluoroBrite DMEM (Life Technologies) when required. To score factor-independent colonies, dox (and other compounds) were removed by washing cultures twice with PBS and then maintaining them in ESC media for at least three days before colonies were counted by fluorescence microscopy or after alkaline phosphatase staining (Vector Laboratories). For quantification of Oct4-GFP expression, cultures were harvested by trypsin digestion, stained with DAPI or 7-AAD to exclude dead cells, acquired on a LSRII cytometer (BD Biosciences) and analyzed with FlowJo software (Tree Star Inc.).
The aforementioned compounds were tested using “reprogrammable MEFs” (Stadtfeld et al., 2010) engineered to express a doxycycline (dox)-inducible cassette encoding OKSM (Sommer et al., 2009) from a single defined genomic position and a GFP reporter from the endogenous Oct4 locus, whose expression is a hallmark of the pluripotent state. […]

GMPs [3] = test: Single cell seeding of DsRed GMPs, Oct4-GFP expression; settings: flow cytometry, six days
Protocol: as §1

hepatoblasts = test: Reprogramming of hepatoblasts, dox-independent colonies; settings: compound alone
Protocol: as §1

β-catenin = β-catenin immunofluorescence in GMPs; settings: purified GMPs cultured in CHIR, two days
Excerpt: FIG. 8A-8G. Related to FIG. 3. (8A) Fluorescence images of DsRed and Oct4-GFP expression in a representative GMP-derived colony derived upon culture in dox+CHIR for six days. (8B) Percentage of Oct4-GFP^+ cells in successfully reprogramming colonies after single cell seeding of GMPs in dox+CHIR or dox+3c, respectively (n=10 clonal colonies for each condition). (8C) AP staining of dox-independent colonies derived from LSK, GMP, MEP and CMPs in dox, dox+CHIR or dox+3c after six days of culture. (8D) Percentage of Oct4-GFP^+ cells in colonies obtained after single cell seeding of hepatoblasts and culture under the indicated conditions for six days (n=10 clonal colonies). (8E) IF images of β-catenin staining in cells derived from GMPs cultured under dox or dox+CHIR for two days. White arrows highlight representative cells positive for β-catenin expression. […]
Cells were fixed with paraformaldehyde, permeabilized and stained with primary antibodies against Oct4 (Santa Cruz, sc-8628), Nanog (Abcam, ab808992), Utf1 (Abcam, ab24273), Sall4 (Abcam, ab29112), Lin28 (Abcam, ab46020) and β-catenin (Sigma, C7207) followed by staining with appropriate secondary antibodies conjugated to either Alexa Fluor 555 or 647 (Invitrogen). Images were acquired with a Neo 5.5 cSMOS camera (Andor) and processed and analyzed using NIS-Elements and Adobe Photoshop. […]

With `O=C1O[C@H]([C@@H](O)CO)C(O)=C1O` [AA, ascorbic acid] the “aspect of the somatic program whose silencing is facilitated (GO analysis)” value [1] was “mesodermal differentiation potential”, the “effect on iPSC formation from blood progenitor cells” value (GMPs [2]) was “did not significantly enhance” and the “dox-independent colonies, efficiency of input cells” value (shortened to “dox-independent colonies”) (reprogrammable MEFs) was “about 2%”.

In the case of `Cc1c[nH]c(-c2cnc(NCCNc3ccc(C#N)cn3)nc2-c2ccc(Cl)cc2Cl)n1` [CHIR], the “average GFP labeling index (Oct4-GFP+ cells in colonies)” value (GMPs [3]) is reported as “over 90%”, the “dox-independent colonies” value (reprogrammable MEFs) is reported as 0.5% and the “effect on number of iPSC colonies from hepatoblasts” value (hepatoblasts) is reported as “little beneficial effect”. The β-catenin protein level (β-catenin) was “rapidly accumulated”.

For `Cc1cccc(-c2[nH]ncc2-c2ccc3ncccc3n2)n1` [iAlk5], the “aspect of the somatic program whose silencing is facilitated (GO analysis)” value [1] was “collagen synthesis” and the “dox-independent colonies” value (reprogrammable MEFs) was “about 2%”.
